We go through eight molecules from US8673942B2, “Fused ring compounds and use thereof” (Takeda Pharmaceutical Company Limited, priority 2008, dated 2014).

The target of series [1] is T1, human liver GK (GST-hLGK1) (Homo sapiens, UniProt P35557).
T1 construct: with a BamHI site added to immediately before the initiation codon; made in house; host or cells: Escherichia coli BL21 (Stratagene), plasmid pGEX6P-2/hLGK1
T1 sequence (P35557 1-464 isoform P35557-3): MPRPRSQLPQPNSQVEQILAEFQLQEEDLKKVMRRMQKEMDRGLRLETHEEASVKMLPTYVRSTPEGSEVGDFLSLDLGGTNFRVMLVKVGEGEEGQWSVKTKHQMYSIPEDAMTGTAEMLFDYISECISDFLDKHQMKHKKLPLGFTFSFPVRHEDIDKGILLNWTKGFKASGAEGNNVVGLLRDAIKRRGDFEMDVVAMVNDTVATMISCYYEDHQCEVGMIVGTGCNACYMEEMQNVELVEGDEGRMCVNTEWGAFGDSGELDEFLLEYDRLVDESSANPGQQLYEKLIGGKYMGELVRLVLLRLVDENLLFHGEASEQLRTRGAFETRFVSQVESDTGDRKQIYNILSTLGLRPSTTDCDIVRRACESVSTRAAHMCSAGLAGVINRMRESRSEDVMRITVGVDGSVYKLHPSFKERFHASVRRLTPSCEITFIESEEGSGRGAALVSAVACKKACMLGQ
Put plainly: Measurement of GK activation value. It counts as biochemical. As to conditions: GST-hLGK1 6 μg/mL, 5 mmol/L D-glucose, 50 μmol/L Mant-ATP, 60 min at 37° C.; concentration at midpoint between maximum activity value and control activity value. The method, then: GK enzyme reactions were performed in 50 mmol/L HEPES pH 7.4, 200 mmol/L KCl, 5 mmol/L MgCl2, 2 mmol/L DTT, containing 50 μmol/L 2′-(or -3′)-O—(N-methylanthraniloyl)adenosine 5′-triphosphate (Mant-ATP) (Jena Bioscience GmbH), 5 mmol/L D-glucose, 5% DMSO and 6 μg/mL GST-hLGK1 obtained in Reference Example 2A in a total volume 50 μL. The reactions were performed in 384 well black plates (Nalge Nunc International K.K.). Prior to the reaction, the enzyme and test compound were incubated for 10 min at 37° C., and 25 mM D-glucose solution (10 μL) was added to start the reaction.
After the incubation for 60 min at 37° C., the reaction was quenched by adding 25 μL of a quenching solution (containing 200 mM HEPES (pH 7.4), 20 mM MgCl2, 200 mM EDTA, 0.03% Triton-X 100, 0.3% Coating 3 reagent (Caliper Life Sciences, Inc.)).
Mant-ATP (substrate, 2′- (or -3′)-O—(N-methylanthraniloyl) adenosine 5′-triphosphate) and Mant-ADP (reaction resultant product) were separated from each well after the reaction by a microchip type capillary electrophoresis apparatus 250 HTS (Caliper Life Sciences, Inc.). The reaction rate [(reaction resultant product peak height)/(reaction resultant product peak height+substrate peak height)×100(%)] was calculated from the ratio of the substrate peak height and reaction resultant product peak height obtained by fluorescence detection (excitation wavelength 355 nm, measurement wavelength 460 nm) and used as the index of GK activity.
As a control group, the reaction rate was calculated in the same manner as above without the test compounds.
The percentage obtained by dividing the reaction rate of the well added with each concentration of the test compound (test compound addition group) by the reaction rate of the control group was taken as the GK activity value, and the concentration of the test compound at the midpoint between the maximum activity value of the test compound addition group and the control group activity value is shown as EC50 value.

In turn, `COc1cc(Oc2ccc(S(C)(=O)=O)nc2)cc2cc(C3=NCC(CC(=O)NCC(C)(C)O)S3)[nH]c12` (single isomer, unassigned) [Example 74] yielded a melting point of 173 to 174 °C. In addition, the EC50 in series [1] is 28 nM.
For `CC(CO)Oc1cc(Oc2ccc(S(C)(=O)=O)cc2)cc2cc(C3=NCC(CC(N)=O)S3)[nH]c12` (stereo not shown) [Example 17, 2-(2-{7-(2-Hydroxy-1-methylethoxy)-5-[4-(methylsulfonyl)phenoxy]-1H-indol-2-yl}-4,5-dihydro-1,3-thiazol-5-yl)acetamide] the same measures were 137 to 142 °C and 48 nM.
As for `CS(=O)(=O)c1ccc(Oc2cc(OCC3CCOCC3)c3[nH]c(C4=NCC(CCO)S4)cc3c2)cc1` (stereo not shown) [Example 19, 2-(2-{5-[4-(Methylsulfonyl)phenoxy]-7-(tetrahydro-2H-pyran-4-ylmethoxy)-1H-indol-2-yl}-4,5-dihydro-1,3-thiazol-5-yl)ethanol], the melting point is 104 to 105 °C. Further, a half-maximal response in series [1] (EC50) required 44 nM.
The molecule `CC(CO)Oc1cc(Oc2ccc(S(C)(=O)=O)cc2)cc2cc(C3=NCC(CCO)S3)[nH]c12` (stereo not shown) [Example 16, 2-({2-[5-(2-Hydroxyethyl)-4,5-dihydro-1,3-thiazol-2-yl]-5-[4-(methylsulfonyl)phenoxy]-1H-indole-7-yl}oxy)propan-1-ol] displayed a melting point of 165 to 169 °C. For the same molecule, the half-maximal effective concentration (EC50) in series [1] was 33 nM.
For the molecule `COc1cc(Oc2ccc(S(C)(=O)=O)nc2)cc2cc(C3=NCC(CC(=O)NC[C@H](C)O)S3)[nH]c12` (stereo partly drawn) [Example 80, N-[(2S)-2-Hydroxypropyl]-2-[2-(7-methoxy-5-{[6-(methylsulfonyl)pyridin-3-yl]oxy}-1H-indol-2-yl)-4,5-dihydro-1,3-thiazol-5-yl]acetamide], the melting point was 185 to 186 °C. This molecule displayed an EC50 in series [1] of 37 nM.
The matching figures for `Cn1ccnc1COc1cc(Oc2ccc(S(C)(=O)=O)cc2)cc2cc(C3=NCC(CC(N)=O)S3)[nH]c12` (stereo not shown) [Example 11, 2-(2-{7-[(1-Methyl-1H-imidazol-2-yl)methoxy]-5-[4-(methylsulfonyl)phenoxy]-1H-indol-2-yl}-4,5-dihydro-1,3-thiazol-5-yl)acetamide]: 130 to 131 °C and 52 nM.
The matching figures for `CS(=O)(=O)c1ccc(Oc2cc(OCc3ccccc3)c3[nH]c(C4=NCC(CC(=O)O)S4)cc3c2)cc1` (stereo not shown) [Example 3, (2-{7-(Benzyloxy)-5-[4-(methylsulfonyl)phenoxy]-1H-indol-2-yl}-4,5-dihydro-1,3-thiazol-5-yl)acetic acid]: 218 to 219 °C and 55 nM.
As for `COc1cc(Oc2ccc(S(C)(=O)=O)nc2)cc2cc(C3=NCC(CC(=O)N(C)C)S3)[nH]c12` (stereo not shown) [Example 79, 2-[2-(7-Methoxy-5-{[6-(methylsulfonyl)pyridin-3-yl]oxy}-1H-indol-2-yl)-4,5-dihydro-1,3-thiazol-5-yl]-N,N-dimethylacetamide], the melting point was in the range of 206 to 207 °C. This molecule returned an EC50 in series [1] of 35 nM.
